Data set [1] can be described thus: Pigment wetting: viscosity difference rate of pigment dispersion. Format: physicochemical. Particulars: 65% emollient with 35% red iron oxide; rheometer 20.0° C., 10.0 1/s; lower = better pigment wetting. The text has this: The viscosity of a pigment dispersion in oil is negatively correlated to the dispersion efficacy of the carrier liquid emollient. Therefore, decreased viscosities confirm the homogeneity of the dispersion. To calculate the viscosity difference rate between the pure emollient without added pigment and the pigment dispersion, the following formula will be used: Viscosity difference rate=(viscosity value after pigment dispersion−viscosity value before pigment dispersion)/(viscosity value before pigment dispersion) The lower the viscosity difference rate the better the pigment wetting. Mixtures of 65% emollient with 35% pigment (red iron oxide) were homogenized and analyzed*. [table]

Data set [2] can be described thus: Pigment dispersion: particle size by Grindometer. To be noted: 65% emollient with 35% yellow iron oxide, next day, average of 3. The format is physicochemical. From the text: Mixtures of 65% emollient with 35% pigment (yellow iron oxide) were homogenized and analyzed*. [table]

Take Pentaerythrityl Tetraisostearate: the Viscosity difference rate in data set [1] is listed as 21. The same substance returned an Average particle size in data set [2] of 31 μm.
